We go through 4 compounds from ChEMBL document CHEMBL1201862, “PubChem BioAssay data set” (2004).

Common to all, as to assay: NCI tumour cell line growth inhibition, 48 h
For assay [1], the system named is Malme-3M.
Assay [2] has as its system SK-MEL-28.
In assay [3] the test system is SNB-19.
Assay [4] relates to SK-MEL-2.
Assay [5] relates to SK-OV-3.
In assay [6] the test system is NCI-H460.
Assay [7] has as its system A498.
Assay [8] deals with Hs-578T.
The subject of assay [9] is IGROV-1.
In assay [10] the test system is HCT-116.
For assay [11], the system named is NCI-H23.
For assay [12], the system named is HCT-15.
The test system of assay [13] is OVCAR-8.
For assay [14], the system named is HOP-62.
Assay [15] deals with SK-MEL-5.
Assay [16] has as its system SF-295.
Assay [17] relates to M14.
Assay [18] relates to EKVX.

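1) Cells in 96-well plates. 2) Compound, 48 h, 5 concentrations. 3) Linear interpolation between surrounding doses. 4) Unreached endpoint = highest concentration. GI50: concentration for 50% inhibition of growth.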 Activity calls are given as the source filed them. Cut-off read from the data, not from the text of the source: active = GI50 up to about 1.1 µM and inactive = higher.

`CCCCCC(O)C1C(=O)OC(C)C(O)/C=C/C=C/C=C/C=C\C=C(\C)C(O)CC(O)CC(O)CC(O)CC(O)CC(O)CC1O` (configuration not stated): the GI50 in [1], in assay [2], in assay [3], in assay [4], in assay [5] and in assay [6] was > 50 µM (inactive) throughout. The GI50 in assay [7] is > 50 µM (inactive); in [8], > 50 µM (inactive); in [9] it was > 50 µM (inactive); in [10], > 50 µM (inactive); in assay [11], > 50 µM (inactive); in assay [12], > 50 µM. Moreover, the GI50 in assay [13], in assay [14], in assay [15], in assay [16], in assay [17] and in assay [18] was > 50 µM (inactive) throughout.
On to `C=C1C[C@@H]2CC[C@@]34CC5O[C@H]6C(O[C@H]7CC[C@H](CC(=O)O[C@@H]8[C@@H](C)[C@@H]9O[C@@H]%10C[C@]%11(C[C@@H]%12O[C@]%13(C[C@H](C)[C@@H]%14O[C@@H]%15CC(C(O)CO)O[C@@H]%15C[C@@H]%14O%13)C[C@H](C)[C@@H]%12O%11)O[C@@H]%10C[C@@H]9O[C@H]8CC8O[C@@H](CC[C@@H]1O2)C[C@@H](C)C8(O)CO)O[C@@H]7[C@@H]6O3)[C@H]5O4` (some centres not stated), for which the GI50 in assay [1] is 0.394 µM (active); in [2], > 0.959 µM (active); in assay [3], > 1 µM (active); in assay [4], > 0.859 µM (active); in assay [5], > 1 µM (active); in assay [6], 0.53 µM (active). Also, the GI50 in [7] was > 1 µM (active); in assay [8], 0.0627 µM (active); in assay [9], 0.516 µM (active); in [10] it was 0.627 µM (active); in [11] it was > 0.473 µM (active); in assay [12] it was > 0.638 µM. For the same compound, the GI50 in assay [13] is > 1 µM (active); in assay [14], > 1 µM (active); in assay [15], 0.624 µM (active); in [16] it was > 0.796 µM (active); in assay [17], > 0.944 µM (active); in assay [18], > 1 µM (active).
For `CC1(C)C[C@H]2C3=CC[C@@H]4[C@@]5(C)CC[C@H](O)C(C)(C)[C@@H]5CC[C@@]4(C)[C@]3(C)C[C@@H](O)[C@@]23C[C@@H]1OC3=O`, the GI50 is > 100 µM (inactive) in assay [1]; > 100 µM (inactive) in [2]; > 100 µM (inactive) in [3]; > 100 µM (inactive) in assay [4]; > 100 µM (inactive) in assay [5]; 70.3 µM (inactive) in assay [6]. For the same compound, the GI50 is > 100 µM (inactive) in assay [7]; > 100 µM (inactive) in assay [8]; > 100 µM (inactive) in [9]; 74 µM (inactive) in assay [10]; > 100 µM (inactive) in assay [11]; > 100 µM in assay [12]. Further, the GI50 in assay [13] was > 100 µM (inactive); in [14], > 100 µM (inactive); in assay [15], 55.2 µM (inactive); in [16], 74.6 µM (inactive); in assay [17] it was > 100 µM (inactive); in [18], > 100 µM (inactive).
As for `O=C(NC(OCc1ccccc1)(C(F)(F)F)C(F)(F)F)OCc1ccccc1`, the GI50 in assay [1] was 18 µM (inactive); in assay [2] it was 17.7 µM (inactive); in assay [3] it was 15.8 µM (inactive); in assay [4], 15.3 µM (inactive); in assay [5] it was 17.5 µM (inactive); in assay [6], 16.1 µM (inactive). Moreover, the GI50 in assay [7] is 17.7 µM (inactive); in [8], 13.9 µM (inactive); in [9], 15.1 µM (inactive); in assay [10], 16.4 µM (inactive); in [11] it was 12.9 µM (inactive); in [12], 13.8 µM. Moreover, the GI50 was 16.3 µM (inactive) in [13]; 15.1 µM (inactive) in assay [14]; 15.8 µM (inactive) in assay [15]; 17.6 µM (inactive) in assay [16]; 18.9 µM (inactive) in [17]; 15.2 µM (inactive) in [18].
